From patent publication US20260042764A1, “COMPOSITIONS AND METHODS FOR INHIBITION OF KRAS” (TheRas, Inc., priority 2022, published 2026)

Key:
[1] = system: SW620 cells (KRAS G12V); experiment: Cell-based pERK HTRF assay in SW620 cell (Biological Example 4)
Procedure, shortened: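 This assay measures inhibition of ERK phosphorylation downstream of KRAS G12V in intact SW620 cells. Compounds are applied for 4 h over nine half-log concentrations starting at 1 μM, and pERK is quantified by HTRF.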

[2] = system: GP2d cells (KRAS G12D); experiment: Cell-based pERK HTRF assay in GP2d cell (Biological Example 2); conditions: GP2d (KRAS G12D) cells
Procedure, shortened: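 Phospho-ERK is measured by HTRF following a 60 min compound exposure at 0.25% DMSO, with a 9-point half-log curve topping at 1 μM or 100 nM.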

[3] = target: T1, Avi-KRAS G12D (2-169) GTP/RAF1 RBD-3xFLAG (51-131) (Homo sapiens, UniProt P01116, G12D); experiment: Raf1-KRAS G12D-GTP disruption HTRF assay (Biological Example 3); format: binding; conditions: KRAS G12D, GTP-loaded
T1 construct: Avi-KRAS G12D (2-169)
Procedure, shortened: (§1)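 HTRF PPI read-out (ex 320 nm, em 615 nm) after 1 h RT incubation with shaking; data as % activity vs DMSO (100%), IC50 from curve fit. Complex 50 nM, RBD reagent 75 nM; compound 30-0.005 μM, 3-fold.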

[4] = target: T2, Avi-KRAS WT (2-169) GTP/RAF1 RBD-3xFLAG (51-131) (Homo sapiens, UniProt P01116); experiment: Raf1-KRAS WT-GTP disruption HTRF assay (Biological Example 3); format: binding; conditions: KRAS WT, GTP-loaded
T2 construct: Avi-KRAS WT (2-169)
Procedure, shortened: as §1

[5] = target: T3, Avi-KRAS G12C (2-169) GTP/RAF1 RBD-3xFLAG (51-131) (Homo sapiens, UniProt P01116, G12C); experiment: Raf1-KRAS G12C-GTP disruption HTRF assay (Biological Example 3); format: binding; conditions: KRAS G12C, GTP-loaded
T3 construct: Avi-KRAS G12C (2-169)
Procedure, shortened: as §1

[6] = target: T4, Avi-KRAS G12V (2-169) GTP/RAF1 RBD-3xFLAG (51-131) (Homo sapiens, UniProt P01116, G12V); experiment: Raf1-KRAS G12V-GTP disruption HTRF assay (Biological Example 3); format: binding; conditions: KRAS G12V, GTP-loaded
T4 construct: Avi-KRAS G12V (2-169)
Procedure, shortened: as §1

[7] = Homo sapiens, SW-620, SW620 (KRAS G12V) cells

T4 sequence (P01116 2-169 isoform P01116-2 G12V): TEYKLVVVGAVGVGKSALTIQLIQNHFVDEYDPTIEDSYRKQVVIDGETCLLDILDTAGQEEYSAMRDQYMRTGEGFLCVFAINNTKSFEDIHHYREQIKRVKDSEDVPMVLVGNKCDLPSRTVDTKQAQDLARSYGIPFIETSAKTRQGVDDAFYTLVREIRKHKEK
T2 sequence (P01116 2-169 isoform P01116-2): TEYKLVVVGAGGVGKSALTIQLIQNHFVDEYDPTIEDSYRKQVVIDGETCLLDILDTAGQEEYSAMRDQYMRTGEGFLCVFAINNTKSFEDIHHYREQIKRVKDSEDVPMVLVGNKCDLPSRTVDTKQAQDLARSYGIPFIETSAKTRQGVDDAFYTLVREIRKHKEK
T3 sequence (P01116 2-169 isoform P01116-2 G12C): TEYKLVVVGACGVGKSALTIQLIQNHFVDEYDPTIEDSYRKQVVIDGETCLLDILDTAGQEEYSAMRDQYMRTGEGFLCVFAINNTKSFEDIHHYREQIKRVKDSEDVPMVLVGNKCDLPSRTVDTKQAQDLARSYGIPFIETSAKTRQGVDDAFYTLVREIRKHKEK
T1 sequence (P01116 2-169 isoform P01116-2 G12D): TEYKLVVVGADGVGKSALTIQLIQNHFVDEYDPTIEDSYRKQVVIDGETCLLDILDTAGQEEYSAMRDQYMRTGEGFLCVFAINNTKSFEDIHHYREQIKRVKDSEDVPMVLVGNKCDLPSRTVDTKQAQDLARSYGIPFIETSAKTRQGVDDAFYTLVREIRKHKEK

Structure (SMILES) | IC50 [1, 7] [nM] | IC50 ([2]; GP2d) [nM] | IC50 [3] [nM] | IC50 [4] [nM] | IC50 [5] [nM] | IC50 [6] [nM] | IC50 ([1]; SW620 (KRAS G12V) cells) [nM] | IC50 [2] [nM]
CN(Cc1cccc(=O)n1C)c1nc(OC[C@@]23CCCN2C[C@H](F)C3)nc2c(F)c(-c3ccc(F)c4sc(N)c(C#N)c34)c(C(F)(F)F)cc12 (atropisomer, axis not shown) [Compound 879] | < 100 | < 100 | 1000 to 10000 | > 10000 | > 10000 | > 10000 | – | –
CN(Cc1ccccn1)c1nc(OC[C@@]23CCCN2C[C@H](F)C3)nc2c(F)c(-c3ccc(F)c4sc(N)c(C#N)c34)c(C(F)(F)F)cc12 (atropisomer, axis not shown) [Compound 865] | < 100 | < 100 | 100 to 1000 | 1000 to 10000 | 1000 to 10000 | 1000 to 10000 | – | –
CCN(c1nc(OC[C@@]23CCCN2C[C@H](F)C3)nc2c(F)c(-c3ccc(F)c4sc(N)c(C#N)c34)c(C(F)(F)F)cc12)[C@H]1C[C@H]2COCC(=O)N2C1 (atropisomer, axis not shown) [Compound 882] | < 100 | < 100 | ≤ 100 | 100 to 1000 | ≤ 100 | ≤ 100 | – | –
CCN(c1nc(OC[C@@]23CCCN2C[C@H](F)C3)nc2c(F)c(-c3ccc(F)c4sc(N)c(C#N)c34)c(C(F)(F)F)cc12)[C@H]1CC(=O)N2CCC[C@H]12 (atropisomer, axis not shown) [Compound 880] | < 100 | < 100 | 100 to 1000 | 100 to 1000 | ≤ 100 | ≤ 100 | – | –
CCN(c1nc(OC[C@@]23CCCN2C[C@H](F)C3)nc2c(F)c(-c3ccc(F)c4sc(N)c(C#N)c34)c(C(F)(F)F)cc12)[C@H]1C[C@H](COC)N(C(=O)[C@@H]2C[C@@H]2F)C1 (atropisomer, axis not shown) [Compound 869] | < 100 | < 100 | 100 to 1000 | 100 to 1000 | 100 to 1000 | 100 to 1000 | – | –
CCN(c1nc(OC[C@@]23CCCN2C[C@H](F)C3)nc2c(F)c(-c3ccc(F)c4sc(N)c(C#N)c34)c(C(F)(F)F)cc12)[C@H]1C[C@H](C)N(C(=O)[C@@H]2C[C@@H]2F)C1 (atropisomer, axis not shown) [Compound 841] | < 100 | < 100 | 100 to 1000 | 100 to 1000 | 100 to 1000 | 100 to 1000 | – | –
CCN(c1nc(OC[C@@]23CCCN2C[C@H](F)C3)nc2c(F)c(-c3ccc(F)c4sc(N)c(C#N)c34)c(C(F)(F)F)cc12)[C@H]1CC[C@](C)(C(=O)N(C)C)C1 (atropisomer, axis not shown) [Compound 894] | < 100 | < 100 | 1000 to 10000 | 1000 to 10000 | 1000 to 10000 | 1000 to 10000 | – | –
CCN(c1nc(OC[C@@]23CCCN2C[C@H](F)C3)nc2c(F)c(-c3ccc(F)c4sc(N)c(C#N)c34)c(C(F)(F)F)cc12)[C@H]1CCN(C(=O)c2coc(C)n2)C1 (atropisomer, axis not shown) [Compound 832] | < 100 | < 100 | ≤ 100 | 100 to 1000 | ≤ 100 | ≤ 100 | – | –
CCN(c1nc(OC[C@@]23CCCN2C[C@H](F)C3)nc2c(F)c(-c3ccc(F)c4sc(N)c(C#N)c34)c(C(F)(F)F)cc12)[C@H]1CCN(C(=O)c2ncoc2C)C1 (atropisomer, axis not shown) [Compound 901] | < 100 | < 100 | 100 to 1000 | 100 to 1000 | 100 to 1000 | 100 to 1000 | – | –
C[C@@H](c1cccnc1)N(C)c1nc(OC[C@@]23CCCN2C[C@H](F)C3)nc2c(F)c(-c3ccc(F)c4sc(N)c(C#N)c34)c(C(F)(F)F)cc12 [Compound 969] | < 100 | < 100 | 1000 to 10000 | 1000 to 10000 | 1000 to 10000 | 1000 to 10000 | – | –
CCN(c1nc(OCC23CCCN2CC(F)C3)nc2c(F)c(-c3ccc(F)c4sc(N)c(C#N)c34)c(C(F)(F)F)cc12)C1CCN(C(=O)c2ccc(Cl)s2)C1 (stereo not drawn) [Compound 929] | – | – | 100 to 1000 | 100 to 1000 | 100 to 1000 | 100 to 1000 | < 100 | < 100
CCN(c1nc(OC[C@@]23CCCN2C[C@H](F)C3)nc2c(F)c(-c3ccc(F)c4sc(N)c(C#N)c34)c(C(F)(F)F)cc12)[C@H]1C[C@H](COC)N(C(=O)OC2COC2)C1 (atropisomer, axis not shown) [Compound 837] | < 100 | < 100 | 100 to 1000 | 100 to 1000 | 100 to 1000 | 100 to 1000 | – | –
CCN(c1nc(OC[C@@]23CCCN2C[C@H](F)C3)nc2c(F)c(-c3ccc(F)c4sc(N)c(C#N)c34)c(C(F)(F)F)cc12)[C@H]1CCN(C(=O)OCC2COC2)[C@@H]1C (atropisomer, axis not shown) [Compound 835] | < 100 | < 100 | 100 to 1000 | 1000 to 10000 | ≤ 100 | 100 to 1000 | – | –
CN(Cc1cnoc1)c1nc(OC[C@@]23CCCN2C[C@H](F)C3)nc2c(F)c(-c3ccc(F)c4sc(N)c(C#N)c34)c(C(F)(F)F)cc12 (atropisomer, axis not shown) [Compound 935] | < 100 | < 100 | 100 to 1000 | 100 to 1000 | 100 to 1000 | 100 to 1000 | – | –
CCN(c1nc(OC[C@@]23CCCN2C[C@H](F)C3)nc2c(F)c(-c3ccc(F)c4sc(N)c(C#N)c34)c(C(F)(F)F)cc12)[C@H]1CCN(C(=O)C2C[C@H]2F)[C@@H]1C (stereo partly drawn) [Compound 874] | < 100 | < 100 | 100 to 1000 | 100 to 1000 | 100 to 1000 | 100 to 1000 | – | –
CCN(c1nc(OC[C@@]23CCCN2C[C@H](F)C3)nc2c(F)c(-c3ccc(F)c4sc(N)c(C#N)c34)c(C(F)(F)F)cc12)[C@H]1C[C@H]2CN(CC(F)F)C(=O)N2C1 (atropisomer, axis not shown) [Compound 940] | < 100 | < 100 | 100 to 1000 | 100 to 1000 | 100 to 1000 | 100 to 1000 | – | –
CCN(c1nc(OCC23CCCN2CC(F)C3)nc2c(F)c(-c3ccc(F)c4sc(N)c(C#N)c34)c(C(F)(F)F)cc12)C(C)c1cccnc1 (stereo not drawn) [Compound 933] | < 100 | < 100 | 1000 to 10000 | > 10000 | > 10000 | > 10000 | – | –
CCN(c1nc(OC[C@@]23CCCN2C[C@H](F)C3)nc2c(F)c(-c3ccc(F)c4sc(N)c(C#N)c34)c(C(F)(F)F)cc12)[C@H]1C[C@H](COC)N(C(=O)[C@H]2C[C@H]2F)C1 (atropisomer, axis not shown) [Compound 847] | < 100 | < 100 | 100 to 1000 | 100 to 1000 | 100 to 1000 | 100 to 1000 | – | –
CCN(c1nc(OC[C@@]23CCCN2C[C@H](F)C3)nc2c(F)c(-c3ccc(F)c4sc(N)c(C#N)c34)c(C(F)(F)F)cc12)[C@H]1CCN(C(=O)OC)[C@@H]1COC (atropisomer, axis not shown) [Compound 923] | < 100 | < 100 | 100 to 1000 | 100 to 1000 | 1000 to 10000 | 100 to 1000 | – | –
